Measurements: patent US8754089B2, “Heterocyclic compounds and their uses” (Amgen Inc., priority 2009, dated 2014)

biological target: PI3Kδ (Homo sapiens (Human), UniProt O00329); assay: PI3Kδ Alphascreen assay; assay type: biochemical
Protocol: Full length p110 subunits of PI3k α, β and δ, N-terminally labeled with polyHis tag, were coexpressed with p85 with Baculo virus expression vectors in sf9 insect cells. P110/p85 heterodimers were purified by sequential Ni-NTA, Q-HP, Superdex-100 chromatography. Purified α, β and δ isozymes were stored at −20° C. in 20 mM Tris, pH 8, 0.2M NaCl, 50% glycerol, 5 mM DTT, 2 mM Na cholate. […] The y isozyme was purified by sequential Ni-NTA, Superdex-200, Q-HP chromatography. The γ isozyme was stored frozen at −80° C. in NaH2PO4, pH 8, 0.2M NaCl, 1% ethylene glycol, 2 mM β-mercaptoethanol.
A PI3K Alphascreen® assay (PerkinElmer, Waltham, Mass.) was used to measure the activity of a panel of four phosphoinositide 3-kinases: PI3Kα, PI3Kβ, PI3Kγ, and PI3Kδ. Enzyme reaction buffer was prepared using sterile water (Baxter, Deerfield, Ill.) and 50 mM Tris HCl pH 7, 14 mM MgCl2, 2 mM sodium cholate, and 100 mM NaCl. 2 mM DTT was added fresh the day of the experiment. The Alphascreen buffer was made using sterile water and 10 mM Tris HCl pH 7.5, 150 mM NaCl, 0.10% Tween 20, and 30 mM EDTA. 1 mM DTT was added fresh the day of the experiment. Compound source plates used for this assay were 384-well Greiner clear polypropylene plates containing test compounds at 5 mM and diluted 1:2 over 22 concentrations. Columns 23 and 24 contained only DMSO as these wells comprised the positive and negative controls, respectively. Source plates were replicated by transferring 0.5 uL per well into 384-well Optiplates (PerkinElmer, Waltham, Mass.).
Each PI3K isoform was diluted in enzyme reaction buffer to 2× working stocks. […] PI(4,5)P2 (Echelon Biosciences, Salt Lake City, Utah) was diluted to 10 μM and ATP was diluted to 20 μM. This 2× stock was used in the assays for PI3Kα and PI3Kβ. For assay of PI3Kγ and PI3Kδ, PI(4,5)P2 was diluted to 10 μM and ATP was diluted to 8 μM to prepare a similar 2× working stock. Alphascreen reaction solutions were made using beads from the anti-GST Alphascreen kit (PerkinElmer, Waltham, Mass.). Two 4× working stocks of the Alphascreen reagents were made in Alphascreen reaction buffer. In one stock, biotinylated-IP4 (Echelon Biosciences, Salt Lake City, Utah) was diluted to 40 nM and streptavadin-donor beads were diluted to 80 μg/mL. In the second stock, PIP3-binding protein (Echelon Biosciences, Salt Lake City, Utah) was diluted to 40 nM and anti-GST-acceptor beads were diluted to 80 μg/mL.
10 μL/well of the appropriate substrate 2× stock (containing 20 μM ATP for the PI3Kα and β assays and containing 8 μM ATP for the PI3Kγ and δ assays) was then added to Columns 1-24 of all plates. Plates were then incubated at room temperature for 20 minutes. In the dark, 10 μL/well of the donor bead solution was added to columns 1-24 of the plates to quench the enzyme reaction. The plates were incubated at room temperature for 30 minutes. Still in the dark, 10 μL/well of the acceptor bead solution was added to columns 1-24 of the plates. The plates were then incubated in the dark for 1.5 hours. The plates were read on an Envision multimode Plate Reader (PerkinElmer, Waltham, Mass.) using a 680 nm excitation filter and a 520-620 nm emission filter.

PI3Kδ, sequence (O00329 whole entry): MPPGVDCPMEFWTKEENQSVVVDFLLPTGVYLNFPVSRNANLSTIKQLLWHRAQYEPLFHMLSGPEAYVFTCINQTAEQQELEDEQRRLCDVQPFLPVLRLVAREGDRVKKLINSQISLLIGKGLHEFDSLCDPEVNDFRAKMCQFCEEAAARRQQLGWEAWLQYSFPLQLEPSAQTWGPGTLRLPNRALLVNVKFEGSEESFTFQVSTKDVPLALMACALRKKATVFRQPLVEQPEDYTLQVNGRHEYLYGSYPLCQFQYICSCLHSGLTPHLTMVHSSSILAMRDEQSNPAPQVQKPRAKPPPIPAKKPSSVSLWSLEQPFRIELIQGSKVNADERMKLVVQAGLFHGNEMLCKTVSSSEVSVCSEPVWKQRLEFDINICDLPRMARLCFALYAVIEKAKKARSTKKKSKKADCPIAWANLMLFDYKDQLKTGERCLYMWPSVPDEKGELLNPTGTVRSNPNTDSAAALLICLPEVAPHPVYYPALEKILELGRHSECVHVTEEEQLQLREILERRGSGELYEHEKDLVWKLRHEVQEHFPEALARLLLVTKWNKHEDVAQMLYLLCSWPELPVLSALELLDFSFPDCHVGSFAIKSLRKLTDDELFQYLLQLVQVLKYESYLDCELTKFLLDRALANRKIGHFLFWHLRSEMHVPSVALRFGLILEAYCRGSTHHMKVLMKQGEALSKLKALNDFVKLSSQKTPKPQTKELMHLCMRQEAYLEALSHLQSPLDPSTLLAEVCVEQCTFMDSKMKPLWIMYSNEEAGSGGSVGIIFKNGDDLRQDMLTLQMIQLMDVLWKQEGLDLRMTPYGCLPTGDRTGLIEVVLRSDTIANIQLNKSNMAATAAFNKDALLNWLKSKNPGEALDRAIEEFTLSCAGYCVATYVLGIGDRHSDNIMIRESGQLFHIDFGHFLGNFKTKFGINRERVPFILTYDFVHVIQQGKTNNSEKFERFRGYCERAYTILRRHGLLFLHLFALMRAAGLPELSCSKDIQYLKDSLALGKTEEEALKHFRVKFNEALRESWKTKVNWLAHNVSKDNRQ
PI3Kδ, sequence (P27986 whole entry partner): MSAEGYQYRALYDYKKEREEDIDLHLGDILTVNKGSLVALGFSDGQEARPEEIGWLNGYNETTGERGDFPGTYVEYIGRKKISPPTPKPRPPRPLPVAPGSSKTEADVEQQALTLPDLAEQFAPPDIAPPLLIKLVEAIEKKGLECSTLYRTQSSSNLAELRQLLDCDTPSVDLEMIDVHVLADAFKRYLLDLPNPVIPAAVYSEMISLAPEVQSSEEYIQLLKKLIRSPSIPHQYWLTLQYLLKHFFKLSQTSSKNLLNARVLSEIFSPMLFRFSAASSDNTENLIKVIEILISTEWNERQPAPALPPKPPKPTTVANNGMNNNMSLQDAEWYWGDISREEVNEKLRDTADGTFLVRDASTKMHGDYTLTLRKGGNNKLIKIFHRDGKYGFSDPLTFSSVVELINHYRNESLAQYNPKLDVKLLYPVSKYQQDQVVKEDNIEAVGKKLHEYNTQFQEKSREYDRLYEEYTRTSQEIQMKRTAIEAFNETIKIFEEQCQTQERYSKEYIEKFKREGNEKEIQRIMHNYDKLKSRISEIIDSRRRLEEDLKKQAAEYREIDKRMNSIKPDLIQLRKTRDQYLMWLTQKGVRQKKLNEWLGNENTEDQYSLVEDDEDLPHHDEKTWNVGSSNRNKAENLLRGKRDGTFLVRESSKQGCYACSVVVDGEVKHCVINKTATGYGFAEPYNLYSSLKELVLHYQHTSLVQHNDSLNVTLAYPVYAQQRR

Compared with Cc1cccc2nc(C(C)Nc3ncnc4[nH]cnc34)c(-c3cccc(F)c3)c(=O)n12 (racemic) [3-(3-fluorophenyl)-6-methyl-2-(1-(9H-purin-6-ylamino)ethyl)-4H-pyrido[1,2-a]pyrimidin-4-one], Cc1cccc2nc([C@@H](C)Nc3ncnc4[nH]cnc34)c(-c3cccc(F)c3)c(=O)n12 [3-(3-fluorophenyl)-6-methyl-2-((1R)-1-(9H-purin-6-ylamino)ethyl)-4H-pyrido[1,2-a]pyrimidin-4-one] is 29-fold higher in Ki: 27.7 nM for the first, 802 nM for the second. The first binds more tightly here.

Compared with CC(Nc1ncnc(N)c1C#N)c1nc2ccccn2c(=O)c1-c1cc(F)cc(F)c1 (racemic) [4-Amino-6-((1-(3-(3,5-difluorophenyl)-4-oxo-4H-pyrido[1,2-a]pyrimidin-2-yl)ethyl)amino)-5-pyrimidinecarbonitrile], C[C@@H](Nc1ncnc(N)c1C#N)c1nc2ccccn2c(=O)c1-c1cc(F)cc(F)c1 [4-amino-6-(((1R)-1-(3-(3,5-difluorophenyl)-4-oxo-4H-pyrido[1,2-a]pyrimidin-2-yl)ethyl)amino)-5-pyrimidinecarbonitrile] is 3600-fold higher in Ki: 89 nM for the first, 320000 nM for the second. The first binds more tightly here.

Compared with CC(Nc1ncnc(N)c1C#N)c1nc2ccccn2c(=O)c1-c1ccccc1S(C)(=O)=O (racemic) [4-amino-6-((1-(3-(2-(methylsulfonyl)phenyl)-4-oxo-4H-pyrido[1,2-a]pyrimidin-2-yl)ethyl)amino)-5-pyrimidinecarbonitrile], C[C@@H](Nc1ncnc(N)c1C#N)c1nc2ccccn2c(=O)c1-c1ccccc1S(C)(=O)=O [4-amino-6-(((1R)-1-(3-(2-(methylsulfonyl)phenyl)-4-oxo-4H-pyrido[1,2-a]pyrimidin-2-yl)ethyl)amino)-5-pyrimidinecarbonitrile] is 470-fold higher in Ki: 52.8 nM for the first, 24600 nM for the second.

First: CC(Nc1ncnc(N)c1C#N)c1nc2ccccn2c(=O)c1-c1cccc(F)c1 (racemic) [4-amino-6-((1-(3-(3-fluorophenyl)-4-oxo-4H-pyrido[1,2-a]pyrimidin-2-yl)ethyl)amino)-5-pyrimidinecarbonitrile]
Second: C[C@@H](Nc1ncnc(N)c1C#N)c1nc2ccccn2c(=O)c1-c1cccc(F)c1 [4-Amino-6-(((1R)-1-(3-(3-fluorophenyl)-4-oxo-4H-pyrido[1,2-a]pyrimidin-2-yl)ethyl)amino)-5-pyrimidinecarbonitrile]
The Ki of the first is 33-fold lower: 57.1 nM for the first, 1880 nM for the second.

Going from Cc1ccnc(-c2c(C(C)Nc3ncnc(N)c3C#N)nc3ccccn3c2=O)c1 (racemic) [4-amino-6-((1-(3-(4-methyl-2-pyridinyl)-4-oxo-4H-pyrido[1,2-a]pyrimidin-2-yl)ethyl)amino)-5-pyrimidinecarbonitrile] to Cc1ccnc(-c2c([C@@H](C)Nc3ncnc(N)c3C#N)nc3ccccn3c2=O)c1 [4-amino-6-(((1R)-1-(3-(4-methyl-2-pyridinyl)-4-oxo-4H-pyrido[1,2-a]pyrimidin-2-yl)ethyl)amino)-5-pyrimidinecarbonitrile], the Ki rises from 471 nM to 9270 nM (20-fold).

First: CC(Nc1ncnc(N)c1C#N)c1nc2ccccn2c(=O)c1-c1ccccn1 (racemic) [4-amino-6-((1-(4-oxo-3-(2-pyridinyl)-4H-pyrido[1,2-a]pyrimidin-2-yl)ethyl)amino)-5-pyrimidinecarbonitrile]
Second: C[C@@H](Nc1ncnc(N)c1C#N)c1nc2ccccn2c(=O)c1-c1ccccn1 [4-amino-6-(((1R)-1-(4-oxo-3-(2-pyridinyl)-4H-pyrido[1,2-a]pyrimidin-2-yl)ethyl)amino)-5-pyrimidinecarbonitrile]
The Ki of the first is 5.6-fold lower: 104 nM for the first, 585 nM for the second. The first binds more tightly here.

Compared with Cc1cccc2nc(C(C)Nc3ncnc(N)c3C#N)c(-c3ccccn3)c(=O)n12 (racemic) [4-amino-6-((1-(6-methyl-4-oxo-3-(2-pyridinyl)-4H-pyrido-[1,2-a]pyrimidin-2-yl)ethyl)amino)-5-pyrimidinecarbonitrile], Cc1cccc2nc([C@@H](C)Nc3ncnc(N)c3C#N)c(-c3ccccn3)c(=O)n12 [4-amino-6-(((1R)-1-(6-methyl-4-oxo-3-(2-pyridinyl)-4H-pyrido[1,2-a]pyrimidin-2-yl)ethyl)amino)-5-pyrimidine-carbonitrile] is 990-fold higher in Ki: 10.8 nM for the first, 10700 nM for the second.

First: Cc1cccc2nc(C(C)Nc3ncnc(N)c3C#N)c(-c3ccccc3)c(=O)n12 (racemic) [4-amino-6-((1-(6-methyl-4-oxo-3-phenyl-4H-pyrido[1,2-a]pyrimidin-2-yl)ethyl)amino)-5-pyrimidinecarbonitrile]
Second: Cc1cccc2nc([C@H](C)Nc3ncnc(N)c3C#N)c(-c3ccccc3)c(=O)n12 [4-amino-6-(((1S)-1-(6-methyl-4-oxo-3-phenyl-4H-pyrido[1,2-a]pyrimidin-2-yl)ethyl)amino)-5-pyrimidinecarbonitrile]
The Ki of the first is 2.5-fold higher: 12.6 nM for the first, 5 nM for the second.

Going from Cc1cccc2nc(C(C)Nc3ncnc(N)c3C#N)c(-c3ccccc3)c(=O)n12 (single isomer, unassigned) to Cc1cccc2nc([C@H](C)Nc3ncnc(N)c3C#N)c(-c3ccccn3)c(=O)n12 [4-amino-6-(((1S)-1-(6-methyl-4-oxo-3-(2-pyridinyl)-4H-pyrido[1,2-a]pyrimidin-2-yl)ethyl)amino)-5-pyrimidinecarbonitrile], the Ki falls from 1180 nM to 21.4 nM (55-fold). The second binds more tightly here.

Going from Cc1cccc2nc(Cn3nc(I)c4c(N)ncnc43)c(-c3cccc(F)c3)c(=O)n12 [2-((4-amino-3-iodo-1H-pyrazolo[3,4-d]pyrimidin-1-yl)methyl)-3-(3-fluorophenyl)-6-methyl-4H-pyrido[1,2-a]pyrimidin-4-one] to Cc1cccc2nc(CNc3ncnc4[nH]cnc34)c(-c3cccc(F)c3)c(=O)n12 [3-(3-Fluorophenyl)-6-methyl-2-((9H-purin-6-ylamino)methyl)-4H-pyrido[1,2-a]pyrimidin-4-one], the Ki rises from 84.9 nM to 711 nM (8.4-fold). The first binds more tightly here.

Going from Cc1ccccc1-c1c(Cn2cnc3c(N)ncnc32)nc2cccc(C)n2c1=O [2-((6-amino-9H-purin-9-yl)methyl)-6-methyl-3-(2-methylphenyl)-4H-pyrido[1,2-a]pyrimidin-4-one] to Cc1ccccc1-c1c(CSc2ncnc3[nH]cnc23)nc2cccc(C)n2c1=O [6-methyl-3-(2-methylphenyl)-2-((9H-purin-6-yl-sulfanyl)methyl)-4H-pyrido[1,2-a]pyrimidin-4-one], the Ki rises from 6280 nM to 9710 nM (1.5-fold).

Cc1cccc2nc([C@H](C)Nc3ncnc4[nH]cnc34)c(-c3cccc(F)c3)c(=O)n12 [3-(3-fluorophenyl)-6-methyl-2-((1S)-1-(9H-purin-6-ylamino)ethyl)-4H-pyrido[1,2-a]pyrimidin-4-one] and C[C@H](Nc1ncnc(N)c1C#N)c1nc2ccccn2c(=O)c1-c1cccc(F)c1 [4-amino-6-(((1S)-1-(3-(3-fluorophenyl)-4-oxo-4H-pyrido[1,2-a]pyrimidin-2-yl)ethyl)amino)-5-pyrimidinecarbonitrile] are within 1.5-fold of each other in Ki: 23.1 nM for the first, 15.7 nM for the second.

Compared with CC(Nc1ncnc(N)c1C#N)c1c(-c2cc(F)cc(F)c2)c(=O)c2cc(F)ccc2n1C (centres unmarked) [4-amino-6-((1-(3-(3,5-difluorophenyl)-6-fluoro-1-methyl-4-oxo-1,4-dihydro-2-quinolinyl)ethyl)amino)-5-pyrimidinecarbonitrile], C[C@H](Nc1ncnc(N)c1C#N)c1nc2ccccn2c(=O)c1-c1cc(F)cc(F)c1 [4-amino-6-(((1S)-1-(3-(3,5-difluorophenyl)-4-oxo-4H-pyrido[1,2-a]pyrimidin-2-yl)ethyl)amino)-5-pyrimidinecarbonitrile] is 1.5-fold lower in Ki: 33 nM for the first, 21.6 nM for the second.

C[C@H](Nc1ncnc(N)c1C#N)c1nc2ccccn2c(=O)c1-c1ccccc1S(C)(=O)=O [4-amino-6-(((1S)-1-(3-(2-(methylsulfonyl)phenyl)-4-oxo-4H-pyrido[1,2-a]pyrimidin-2-yl)ethyl)amino)-5-pyrimidinecarbonitrile] and C[C@H](Nc1ncnc(N)c1C#N)c1nc2ccccn2c(=O)c1-c1ccccn1 [4-amino-6-(((1S)-1-(4-oxo-3-(2-pyridinyl)-4H-pyrido[1,2-a]pyrimidin-2-yl)ethyl)amino)-5-pyrimidinecarbonitrile] are within 1.5-fold of each other in Ki: 53.7 nM for the first, 42.4 nM for the second.

With Cc1ccnc(-c2c([C@H](C)Nc3ncnc(N)c3C#N)nc3ccccn3c2=O)c1 [4-amino-6-(((1S)-1-(3-(4-methyl-2-pyridinyl)-4-oxo-4H-pyrido[1,2-a]pyrimidin-2-yl)ethyl)amino)-5-pyrimidinecarbonitrile] the Ki was 230 nM.
